Reference: ChEMBL document CHEMBL4513161, “CO-ADD screening of MMV (CH) - Pandemic Response Box” (2021)
Values after ≈ are worked out from the molar mass of the structure shown.

Assays:
HEK293 = assay: cells; type: functional, Homo sapiens, ATCC CRL1573; details: Homo sapiens, ATCC CRL1573, HEK293; ASSAY_TEST Inhibition of Cell Viability; detection method Resazurin; Fluorescence (ex560/em590); MEDIA DMEM with 10% FBS; plate type 384well; TC; CORNING #3712; time 18 hr; read-out: CC50
Escherichia coli = assay: microbe, parasite or virus in culture; details: ATCC 25922, 18 h, ASSAY_TEST Inhibition of Bacterial Growth, detection method Absorption (OD600), MEDIA CAMHB, plate type 384well, NBS, CORNING #3640
Pseudomonas aeruginosa [1] = assay: microbe, parasite or virus in culture; details: ATCC 27853, 18 h, ASSAY_TEST Inhibition of Bacterial Growth, detection method Absorption (OD600), MEDIA CAMHB, plate type 384well, NBS, CORNING #3640
Acinetobacter baumannii = assay: microbe, parasite or virus in culture; details: ATCC 19606, 18 h, ASSAY_TEST Inhibition of Bacterial Growth, detection method Absorption (OD600), MEDIA CAMHB, plate type 384well, NBS, CORNING #3640
Klebsiella pneumoniae = assay: microbe, parasite or virus in culture; details: ATCC 700603, 18 h, ASSAY_TEST Inhibition of Bacterial Growth, detection method Absorption (OD600), MEDIA CAMHB, plate type 384well, NBS, CORNING #3640
Pseudomonas aeruginosa [2] = assay: Antibacterial activity against Pseudomonas aeruginosa PAO397 [PAO1 d(mexAB-oprM) d(mexCD-oprJ) d(mexEF-oprN) d(mexJKL) d(mexXY) d(opmH)] (CO-ADD:GN_211); MIC in CAMBH media using NBS plates, by OD(600); type: functional; details: ASSAY_TEST Inhibition of Bacterial Growth, detection method Absorption (OD600), MEDIA CAMHB, plate type 384well, CORNING #3640, time 18 hr
Staphylococcus aureus = assay: microbe, parasite or virus in culture; details: ATCC 43300, 18 h, ASSAY_TEST Inhibition of Bacterial Growth, detection method Absorption (OD600), MEDIA CAMHB, plate type 384well, NBS, CORNING #3640
Candida albicans = assay: microbe, parasite or virus in culture; details: ATCC 90028, ASSAY_TEST Inhibition of Fungal Growth, detection method Absorption (OD530), plate type 384well, NBS, CORNING #3640

Structure (SMILES)	CC50 (HEK293) [µM]	MIC (Escherichia coli) [µM]	MIC (Pseudomonas aeruginosa [1]) [µM]	MIC (Acinetobacter baumannii) [µM]	MIC (Klebsiella pneumoniae) [µM]	MIC (Cryptococcus neoformans) [µM]	MIC (Pseudomonas aeruginosa [2]) [µM]	MIC (Staphylococcus aureus) [µM]	MIC (Candida albicans) [µM]
Nc1nc(=O)c(Br)c(-c2ccccc2)[nH]1 [BROPIRIMINE]	> 20	> 20	> 20	> 20	> 20	> 20	> 20	> 20	> 20
COc1ccc(C(C)(C)C)cc1NC(=O)C(=O)c1ccc(OCCN2CCOCC2)c2ccccc12	> 20	> 20	> 20	> 20	> 20	> 20	> 20	> 20	> 20
Nc1nc(Nc2ccc3nc(-c4ccc(F)cc4)cc(N)c3c2)cc(-c2ccccc2)n1	0.751	> 20	> 20	> 20	> 20	≤ 0.156	> 20	10 (≈ 4.22 µg/mL)	0.625 (≈ 0.264 µg/mL)
CC(C)Nc1nc2cc(Cl)c(Cl)cc2n1[C@H]1O[C@@H](CO)[C@H](O)[C@@H]1O [MARIBAVIR]	> 20	> 20	> 20	> 20	> 20	> 20	> 20	> 20	> 20
CCCCc1ccc(-c2cc(C(=O)O)cc(-c3ccc(Cl)cc3)n2)cc1	> 20	> 20	> 20	> 20	> 20	> 20	> 20	> 20	> 20
O=C(CC1Sc2ncnn2C1=O)Nc1ccc(Br)cc1 (stereo unspecified)	> 20	> 20	> 20	> 20	> 20	10 (≈ 3.53 µg/mL)	> 20	> 20	20 (≈ 7.06 µg/mL)
Nc1ccc2oc(=O)ccc2c1I	> 20	> 20	> 20	> 20	> 20	> 20	> 20	> 20	> 20
NC(=O)C(c1ccccc1)(c1ccccc1)[C@H]1CCCN(CCc2ccc3c(c2)CCO3)C1	> 20	> 20	> 20	> 20	> 20	> 20	20 (≈ 8.81 µg/mL)	> 20	> 20
COc1ccccc1NC(=O)c1ccccc1Sc1ccc([N+](=O)[O-])cc1	> 20	> 20	> 20	> 20	> 20	> 20	> 20	> 20	> 20
N[C@H]1CCC[C@H]1C(=O)O	> 20	> 20	> 20	> 20	> 20	> 20	> 20	> 20	> 20
COc1ccc(NS(=O)(=O)c2ccc(Cl)s2)cn1	> 20	> 20	> 20	> 20	> 20	> 20	> 20	> 20	> 20
CN(C)c1[nH]c(=O)ncc1F	> 20	> 20	> 20	> 20	> 20	> 20	> 20	> 20	> 20
COc1cc(NS(=O)(=O)c2ccc(C)cc2)c2ncccc2c1	5.41	> 20	> 20	> 20	> 20	> 20	> 20	> 20	> 20
CCOC(=O)N1CCN(c2ccc(Cl)cc2)CC1	> 20	> 20	> 20	> 20	> 20	> 20	> 20	> 20	> 20
C[Si]1(C)CCN(Cc2cc(-c3ccc(Cl)cc3)n(-c3ccc(Cl)cc3)n2)CC1	> 20	> 20	> 20	> 20	> 20	> 20	> 20	> 20	> 20
COC1CC2CCC(C)C(O)(O2)C(=O)C(=O)N2CCCCC2C(=O)OC(C(C)CC2CCC(OCCO)C(OC)C2)CC(=O)C(C)/C=C(\C)C(O)C(OC)C(=O)C(C)CC(C)/C=C/C=C/C=C/1C (stereo unspecified)	> 20	> 20	> 20	> 20	> 20	≤ 0.156	> 20	> 20	≤ 0.156
O=S(=O)(Nc1ccc(O)cc1)c1cccc2cccnc12	> 20	> 20	> 20	> 20	> 20	> 20	> 20	> 20	> 20
O=[N+]([O-])/C(Br)=C/c1ccc(Br)o1	> 20	> 20	> 20	> 20	> 20	20 (≈ 5.94 µg/mL)	> 20	> 20	20 (≈ 5.94 µg/mL)
CC(C)(C)NC(=O)[C@@H]1CN(Cc2cnc3occc3c2)CCN1C[C@@H](O)C[C@@H](Cc1ccccc1)C(=O)N[C@H]1c2ccccc2C[C@H]1O	> 20	> 20	> 20	> 20	> 20	> 20	> 20	> 20	> 20
CC(=O)N[C@H](C)C(=O)N[C@H](Cc1ccccc1)C(=O)O	> 20	> 20	> 20	> 20	> 20	> 20	> 20	> 20	> 20
CONC(=N)c1ccc(-c2ccc(-c3ccc(C(=N)NOC)cc3)o2)cc1 [PAFURAMIDINE]	> 20	> 20	> 20	> 20	> 20	> 20	> 20	> 20	> 20
COc1cc(C(C)(C)CCCC(C)C)cc(OC)c1OC	> 20	> 20	> 20	> 20	> 20	> 20	> 20	> 20	> 20
O=C(c1ccccc1)N1CCN(c2ccccc2NC(=O)C(Cl)(Cl)Cl)CC1	> 20	> 20	> 20	> 20	> 20	> 20	> 20	> 20	> 20
CC(C)(C)c1ccc(Oc2ccc(N)cc2)cc1	> 20	> 20	> 20	> 20	> 20	> 20	> 20	> 20	> 20
COc1cc(C2C3=C(CC(C)(C)CC3=O)Nc3ccccc3N2C(C)=O)ccc1OCc1ccccc1 (stereo unspecified)	> 20	> 20	> 20	> 20	> 20	> 20	> 20	> 20	> 20
Cc1ccn2c(C(=O)NCc3ccccc3)c(C)nc2c1	> 20	> 20	> 20	> 20	> 20	> 20	> 20	> 20	> 20
CCC(C)(C)c1ccc(CC(C)CN2C[C@@H](C)O[C@@H](C)C2)cc1 (stereo partly specified)	> 20	> 20	> 20	> 20	> 20	> 20	> 20	> 20	2.5 (≈ 0.794 µg/mL)
NCC(=O)Nc1ccc(-n2nc(C(F)(F)F)cc2-c2ccc3c(ccc4ccccc43)c2)cc1 [AR-12]	6.68	> 20	> 20	> 20	> 20	> 20	> 20	> 20	> 20
Oc1ccc(NCc2ccccc2OCc2ccccc2)cc1	> 20	> 20	> 20	> 20	> 20	> 20	> 20	> 20	> 20
